Structures are written as SMILES. Residues, ends and D or L forms follow the SMILES beside them. ξ: configuration not given here. *: point of attachment. Lipoyl(6ξ) = O=C(CCCCC1CCSS1)*

This is an account of results in patent publication US9808535B2, “Conjugates for protection from nephrotoxic active substances” (Merck Patent GmbH, priority 2013, dated 2017).

For data set [1] the following is noted: infusion, 740 to 900 mg/m^2 of body surface area; cited from earlier work.
For data set [2] the following is noted: mouse, in vivo, iv.

As for `NCCCNCCSP(=O)(O)O` [Amifostin], the “arterial hypotension as severe side effect” value in data set [1] is reported as “In over half of patients”.

Turning to `NCCCCC(NC(=O)C(CCC(=O)O)NC(=O)C(CCC(=O)O)NC(=O)C(CCC(=O)O)NC(=O)C(CCCCNC(=O)CCCCC1CCSS1)NC(=O)C(CCCCN)NC(=O)C(CCCCN)NC(=O)C(CCC(=O)O)NC(=O)C(CCC(=O)O)NC(=O)C(CCC(=O)O)NC(=O)C(CCCCNC(=O)CCCCC1CCSS1)NC(=O)C(CCCCN)NC(=O)C(CCCCN)NC(=O)C(CCC(=O)O)NC(=O)C(CCC(=O)O)NC(=O)C(CCC(=O)O)NC(=O)C(CCCCNC(=O)CCCCC1CCSS1)NC(=O)C(CCCCN)NC(=O)C(CCCCN)NC(=O)C(N)Cc1ccc(O)cc1)C(N)=O` (centres unmarked) [y(KKKe(lipoic acid)EEE)3K] (H-YKKK(Lipoyl(6ξ))EEEKKK(Lipoyl(6ξ))EEEKKK(Lipoyl(6ξ))EEEK-NH2; configuration not given here), the kidney specificity result in data set [2] is listed as “high kidney specificity”.
